The source of these data is ChEMBL document CHEMBL1201862, “PubChem BioAssay data set” (2004).

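Exposure lasted 48 hours, with cells grown in 96-well plates and compounds tested at five concentrations. Abbreviation: GI50, concentration required for 50% inhibition of growth.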 Calls of active or inactive are those of the source. Rule as the data show it: active = GI50 up to about 1.1 µM and inactive = higher. Some results are limits rather than exact numbers.

Test systems include UO-31; SW-620; HT-29; A549; HOP-62; OVCAR-3; M14; MOLT-4; OVCAR-8; SK-MEL-2; UACC-257; LOX IMVI; A498; IGROV-1; NCI/ADR-RES; PC-3; HCT-116; DU-145; T47D; HL-60.
Experiment in all cases: NCI tumour cell line growth inhibition, 48 h

As to `O=[N+]([O-])c1ccc(/N=N\c2c(O)ccc3ccccc23)c([N+](=O)[O-])c1`, the GI50 in the experiment with UO-31, with SW-620, with HT-29, in the experiment on A549, in the experiment with HOP-62 and with OVCAR-3 was > 100 µM (inactive) each time. Besides, the GI50 in the experiment on M14 was > 100 µM (inactive); in the experiment on MOLT-4, 70.6 µM (inactive); with OVCAR-8, > 100 µM (inactive); in the experiment with SK-MEL-2, > 100 µM (inactive); in the experiment on UACC-257, > 100 µM (inactive); in the experiment with LOX IMVI, > 100 µM (inactive). The GI50 is > 100 µM (inactive) with A498; > 32.7 µM (inactive) in the experiment on IGROV-1; > 100 µM (inactive) in the experiment on NCI/ADR-RES; > 100 µM (inactive) with PC-3; > 100 µM (inactive) in the experiment on HCT-116; > 100 µM (inactive) in the experiment on DU-145. Besides, in the experiment with T47D, the GI50 is > 100 µM (inactive).
On to `O=C(O)/C=C/C(=O)O` [FUMARIC ACID], for which the GI50 in the experiment with UO-31, with HL-60, with SW-620, in the experiment on HT-29, in the experiment on A549 and in the experiment on HOP-62 was > 100 µM (inactive) throughout. The GI50 in the experiment on OVCAR-3, in the experiment with M14, with MOLT-4, with OVCAR-8, with SK-MEL-2 and in the experiment on UACC-257 was > 100 µM (inactive) throughout. In addition, the GI50 in the experiment with LOX IMVI, in the experiment on IGROV-1, in the experiment with NCI/ADR-RES, with PC-3, in the experiment on HCT-116 and in the experiment with DU-145 was > 100 µM (inactive) in each case. Moreover, the GI50 in the experiment with T47D was > 100 µM (inactive).
For `CC1=CC(=O)/C(=C/Nc2nc(-c3ccc([N+](=O)[O-])cc3)cs2)C(=O)O1`, the GI50 in the experiment on UO-31 was > 100 µM (inactive); with HL-60, 19.9 µM (inactive); in the experiment with SW-620, > 100 µM (inactive); with HT-29 it was > 100 µM (inactive); in the experiment with A549, > 100 µM (inactive); in the experiment on HOP-62 it was > 100 µM (inactive). The GI50 in the experiment with M14 was > 100 µM (inactive); in the experiment with MOLT-4, 61.4 µM (inactive); in the experiment on OVCAR-8, > 100 µM (inactive); in the experiment with SK-MEL-2, > 100 µM (inactive); with UACC-257, > 100 µM (inactive); in the experiment with LOX IMVI it was > 100 µM (inactive). In addition, the GI50 was 80 µM (inactive) in the experiment on A498; > 100 µM (inactive) with IGROV-1; > 100 µM (inactive) with NCI/ADR-RES; 46.5 µM (inactive) with PC-3; > 100 µM (inactive) with HCT-116; > 100 µM (inactive) with DU-145. In addition, in the experiment on T47D, the GI50 was > 100 µM (inactive).
`N#CCCNCCN(CCN(C(=O)Nc1ccccc1)c1ccccc1)C(=O)Nc1ccccc1`: the GI50 with UO-31 is 26.4 µM (inactive); in the experiment on HL-60 it was 35.9 µM (inactive); in the experiment with SW-620, 59.7 µM (inactive); in the experiment with HT-29, 33.2 µM (inactive); in the experiment on A549 it was 48.1 µM (inactive); in the experiment with HOP-62, 65.9 µM (inactive). Also, the GI50 in the experiment on M14 is 21.1 µM (inactive); in the experiment on MOLT-4, 39.4 µM (inactive); in the experiment with OVCAR-8 it was 59.4 µM (inactive); in the experiment with SK-MEL-2 it was 38.4 µM (inactive); with UACC-257, 15.7 µM (inactive); in the experiment on LOX IMVI, 37.6 µM (inactive). For the same compound, the GI50 was 51.2 µM (inactive) in the experiment on A498; 50.4 µM (inactive) in the experiment on IGROV-1; 58.3 µM (inactive) with NCI/ADR-RES; 57.3 µM (inactive) with PC-3; 21.4 µM (inactive) in the experiment with HCT-116; 66.8 µM (inactive) with DU-145. Moreover, in the experiment on T47D, the GI50 is 41.5 µM (inactive).
Consider `OCCN(CO)CO`, for which the GI50 in the experiment on UO-31, in the experiment with SW-620, in the experiment with HT-29, with A549, with HOP-62 and with OVCAR-3 was > 100 µM (inactive) in each case. Also, the GI50 in the experiment with M14, in the experiment on OVCAR-8, in the experiment with SK-MEL-2, in the experiment with UACC-257, with A498 and in the experiment on IGROV-1 was > 100 µM (inactive) throughout. Besides, the GI50 in the experiment with NCI/ADR-RES, in the experiment on PC-3, in the experiment with HCT-116, in the experiment with DU-145 and in the experiment on T47D was > 100 µM (inactive) throughout.
Take `O=C(/C=C\Nc1ccccc1O)C(F)(F)F`: the GI50 in the experiment on UO-31 is 27.7 µM (inactive); in the experiment with HL-60 it was 16.6 µM (inactive); in the experiment with SW-620, > 100 µM (inactive); in the experiment with HT-29 it was > 100 µM (inactive); in the experiment on A549, > 100 µM (inactive); with HOP-62, 30.6 µM (inactive). Also, the GI50 in the experiment on OVCAR-3 was 19.5 µM (inactive); in the experiment with M14 it was 40.3 µM (inactive); with MOLT-4, 31.7 µM (inactive); with OVCAR-8, 90.4 µM (inactive); in the experiment on SK-MEL-2, 69 µM (inactive); with UACC-257 it was 26.1 µM (inactive). Moreover, the GI50 in the experiment on LOX IMVI was 95.3 µM (inactive); in the experiment with IGROV-1 it was 78.9 µM (inactive); with NCI/ADR-RES, > 100 µM (inactive); with PC-3 it was 37.3 µM (inactive); in the experiment with HCT-116, 29.5 µM (inactive); in the experiment with DU-145, > 100 µM (inactive). For the same compound, the GI50 in the experiment with T47D is 39 µM (inactive).
Consider `CN(C)Cc1cc(/N=N/c2ccccc2Cl)ccc1O`, for which the GI50 is 12.9 µM (inactive) in the experiment on UO-31; 10.8 µM (inactive) in the experiment with HL-60; 13.3 µM (inactive) in the experiment on SW-620; 14.2 µM (inactive) in the experiment with HT-29; 9.12 µM (inactive) in the experiment on A549; 10.7 µM (inactive) with HOP-62. For the same compound, the GI50 in the experiment with OVCAR-3 was 18 µM (inactive); in the experiment on M14, 19.3 µM (inactive); with MOLT-4, 5.48 µM (inactive); in the experiment with OVCAR-8, 6.05 µM (inactive); in the experiment with UACC-257 it was 21.1 µM (inactive); in the experiment on LOX IMVI, 12.6 µM (inactive). The GI50 was 12.7 µM (inactive) with A498; 25.8 µM (inactive) in the experiment on IGROV-1; 25.4 µM (inactive) in the experiment on NCI/ADR-RES; 27.5 µM (inactive) in the experiment on PC-3; 28.1 µM (inactive) in the experiment on HCT-116; 23.5 µM (inactive) with DU-145. Also, the GI50 with T47D is 17.7 µM (inactive).
For the compound `COc1ccc(/C=C/C(=O)CC(=O)/C=C/c2ccc(OC)cc2)cc1`, the GI50 was 34.8 µM (inactive) in the experiment with UO-31; 25.6 µM (inactive) with HL-60; 52.5 µM (inactive) with SW-620; 23.1 µM (inactive) in the experiment with HT-29; 80.4 µM (inactive) in the experiment on A549; > 100 µM (inactive) with HOP-62. The GI50 in the experiment with OVCAR-3 is 23.1 µM (inactive); in the experiment on M14, 77.8 µM (inactive); with MOLT-4, 28 µM (inactive); with OVCAR-8, 21.4 µM (inactive); with SK-MEL-2, > 100 µM (inactive); in the experiment on UACC-257, > 100 µM (inactive). In addition, the GI50 in the experiment with LOX IMVI is 1.4 µM (inactive); with IGROV-1, > 100 µM (inactive); in the experiment with NCI/ADR-RES, 36.1 µM (inactive); in the experiment with PC-3, 19.9 µM (inactive); in the experiment on HCT-116 it was 15.3 µM (inactive); with DU-145, 74.5 µM (inactive). Moreover, the GI50 with T47D was > 100 µM (inactive).
As for `OCC(CN1CCCCC1)(CN1CCCCC1)CN1CCCCC1`, the GI50 in the experiment on UO-31, with HL-60, with SW-620, in the experiment with HT-29, in the experiment on A549 and with HOP-62 was > 100 µM (inactive) throughout. Further, the GI50 with OVCAR-3, in the experiment with M14, with MOLT-4, in the experiment on OVCAR-8, in the experiment on UACC-257 and in the experiment with LOX IMVI was > 100 µM (inactive) each time. The GI50 in the experiment with A498, in the experiment on IGROV-1, in the experiment on NCI/ADR-RES, in the experiment with PC-3, in the experiment on HCT-116 and in the experiment on DU-145 was > 100 µM (inactive) throughout. For the same compound, in the experiment with T47D, the GI50 was > 100 µM (inactive).
Take `Cc1ccc(S(=O)(=O)n2c3ccc(Br)cc3c3nc4ccccc4nc32)cc1`: the GI50 with UO-31, with SW-620, in the experiment on HT-29, in the experiment with A549, with HOP-62 and in the experiment on OVCAR-3 was > 100 µM (inactive) throughout. Moreover, the GI50 with M14, in the experiment on MOLT-4, with OVCAR-8, with SK-MEL-2, in the experiment with UACC-257 and in the experiment on LOX IMVI was > 100 µM (inactive) each time. The GI50 in the experiment on A498 is > 100 µM (inactive); in the experiment on IGROV-1 it was 0.689 µM (active); in the experiment on NCI/ADR-RES, > 100 µM (inactive); in the experiment on PC-3, > 100 µM (inactive); in the experiment on HCT-116, > 100 µM (inactive); with DU-145, > 100 µM (inactive). Moreover, in the experiment with T47D, the GI50 is > 100 µM (inactive).
On to `O=[N+]([O-])C(Cl)C(Cl)C(Cl)=C(Cl)Cl` (configuration not stated), for which the GI50 with UO-31 is > 31.6 µM (inactive); with HL-60, 10.4 µM (inactive); in the experiment on SW-620 it was 18 µM (inactive); in the experiment with HT-29 it was 17.6 µM (inactive); in the experiment with A549 it was > 91.8 µM (inactive); with HOP-62, 41.2 µM (inactive). Also, the GI50 with OVCAR-3 was 26 µM (inactive); in the experiment on M14 it was 13.8 µM (inactive); in the experiment on MOLT-4, 19.1 µM (inactive); in the experiment on OVCAR-8 it was 30.9 µM (inactive); with UACC-257 it was 22.1 µM (inactive); in the experiment on LOX IMVI, 14.4 µM (inactive). Besides, the GI50 was > 77.3 µM (inactive) with A498; 13.3 µM (inactive) in the experiment with IGROV-1; 40.7 µM (inactive) in the experiment with NCI/ADR-RES; > 41.3 µM (inactive) in the experiment with PC-3; 19.4 µM (inactive) in the experiment on HCT-116; 88.7 µM (inactive) with DU-145. The GI50 in the experiment with T47D is 0.547 µM (active).
